Each structure is given as a SMILES string. The source made the active and inactive calls.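 The calls were made as follows: active = caspase-3 cutting of the mutant autophagy protein ATG16L1 lowered by over half at 20 µM; inactive = the rest.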

As usually defined, the EC50 is the concentration that produces a half-maximal response.

The test addresses Autophagy-related protein 16-1 (Homo sapiens) (UniProt Q676U5). As to the kind of experiment: blockers of caspase-3 processing of ATG16L1 variant – biochemical, AlphaLISA, recombinant protein, with or without FKBP12, dose response (AID 1963956). To be noted: recombinant ATG16L1 T300A + caspase-3, AlphaLISA. For orientation: In Alpha technology, singlet oxygen from a donor bead excites a nearby acceptor bead.

Sequence of Autophagy-related protein 16-1 (Homo sapiens) (Q676U5 whole entry T300A, looked up): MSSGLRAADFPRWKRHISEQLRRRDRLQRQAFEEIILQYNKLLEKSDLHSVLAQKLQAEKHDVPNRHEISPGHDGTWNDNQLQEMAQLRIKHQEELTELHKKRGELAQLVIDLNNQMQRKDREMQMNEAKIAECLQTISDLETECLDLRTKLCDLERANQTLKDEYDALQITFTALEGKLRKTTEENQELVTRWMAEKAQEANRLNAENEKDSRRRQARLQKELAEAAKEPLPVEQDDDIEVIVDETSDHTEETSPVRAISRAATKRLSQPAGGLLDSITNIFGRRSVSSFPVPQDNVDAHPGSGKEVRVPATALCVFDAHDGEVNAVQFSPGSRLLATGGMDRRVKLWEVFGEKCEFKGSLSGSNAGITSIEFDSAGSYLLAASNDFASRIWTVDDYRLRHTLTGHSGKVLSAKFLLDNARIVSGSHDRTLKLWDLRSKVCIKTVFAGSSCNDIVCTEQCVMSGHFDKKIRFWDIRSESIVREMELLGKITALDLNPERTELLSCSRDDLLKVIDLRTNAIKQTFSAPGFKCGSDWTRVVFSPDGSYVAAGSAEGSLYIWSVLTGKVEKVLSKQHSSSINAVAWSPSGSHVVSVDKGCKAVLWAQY

In the case of `CC(=O)N1[C@@H]2CC[C@H]1CC(Nc1nc(NCCc3sc(N)nc3C)nc(N3CCn4ncnc4C3)n1)C2` (some centres not stated), the outcome is “inactive” (with FKBP12) and “inactive” (without FKBP12).

Turning to `CCC(C)(C)C(=O)C(=O)N1CCCC[C@H]1C(=O)N[C@H](CCc1ccc(OC)cc1)C(=O)N1[C@@H]2CC[C@H]1CC(Nc1nc(NCCc3sc(N)nc3C)nc(NCc3ccnc(CO)c3)n1)C2` (some centres not stated), the result (without FKBP12) was inactive.

With `CCC(C)(C)C(=O)C(=O)N1CCCC[C@H]1C(=O)N[C@H](CCc1ccc(OC)cc1)C(=O)N1[C@@H]2CC[C@H]1CC(Nc1nc(NCCc3sc(N)nc3C)nc(N(C)Cc3nnc4n3CCC4)n1)C2` (some centres not stated), the result (without FKBP12) was inactive.

Take `CCC(C)(C)C(=O)C(=O)N1CCCC[C@H]1C(=O)N[C@H](CCc1ccc(OC)cc1)C(=O)N1CC[C@H](Nc2nc(NCCc3sc(N)nc3C)nc(N(C)Cc3nnc4n3CCC4)n2)C1`: the outcome (without FKBP12) was inactive.

In the case of `CCC(C)(C)C(=O)C(=O)N1CCCC[C@H]1C(=O)N[C@H](CCc1ccc(OC)cc1)C(=O)N1CC(Nc2nc(NCCc3sc(N)nc3C)nc(NCCn3cnc4ccccc43)n2)C1`, the result (without FKBP12) was inactive.

For `CCC(C)(C)C(=O)C(=O)N1CCCC[C@H]1C(=O)N[C@H](CCc1ccc(OC)cc1)C(=O)N1[C@@H]2CC[C@H]1CC(Nc1nc(NCCc3sc(N)nc3C)nc(NCCn3cnc4ccccc43)n1)C2` (some centres not stated), the outcome (without FKBP12) was inactive.

Consider `CCC(C)(C)C(=O)C(=O)N1CCCC[C@H]1C(=O)N[C@H](CCc1ccc(OC)cc1)C(=O)N1[C@@H]2CC[C@H]1CC(Nc1nc(NCCc3ccccc3)nc(N3CCn4ncnc4C3)n1)C2` (some centres not stated), for which the outcome is “inactive” (with FKBP12) and “inactive” (without FKBP12).

As to `CCC(C)(C)C(=O)C(=O)N1CCCC[C@H]1C(=O)N[C@H](CCc1ccc(OC)cc1)C(=O)N1[C@@H]2CC[C@H]1CC(NC(C)=O)C2` (some centres not stated), the outcome (without FKBP12) was inactive.

As for `CCC(C)(C)C(=O)C(=O)N1CCCC[C@H]1C(=O)N[C@H](CCc1ccc(OC)cc1)C(=O)N1[C@@H]2CC[C@H]1CC(Nc1nc(NCCc3sc(N)nc3C)nc(N3CCn4ncnc4C3)n1)C2` (some centres not stated), the EC50 reads like this: (with FKBP12) 10.8 µM; (without FKBP12) 12.1 µM.

For the origin of these results see PubChem BioAssay AID1963956 (Xavier Lab, Infectious Disease and Microbiome Program, …, 2024).
